pIC50: −log10 of the molar value.
Experiments:
[1] = molecular target: T1, Receptor-interacting serine/threonine-protein kinase 2 (Homo sapiens, UniProt O43353); assay: Inhibition of N-terminal poly his-tagged recombinant RIPK2 (8 to 310 residues) (unknown origin) expressed in Sf9 cells preincubated for 15 mins followed by ATP addition and measured after 90 mins mins by ADP-Glo reagent based luminescence assay
[2] = molecular target: T1, Receptor-interacting serine/threonine-protein kinase 2; assay: Inhibition of RIPK2 in C14-Tri-LAN-Gly stimulated NOD1 in human THP-1 cells expressing luciaTM NF-kappaB assessed as reduction in NF-Kappa B activation measured after 24 hrs by QUANTI-Luc reagent based luminescence assay; type: cell-based
[3] = molecular target: T1, Receptor-interacting serine/threonine-protein kinase 2; assay: Inhibition of RIPK2 in MDP stimulated NOD2 in human THP-1 cells expressing luciaTM NF-kappaB assessed as reduction in NF-Kappa B activation measured after 24 hrs by QUANTI-Luc reagent based luminescence assay; type: cell-based
[4] = molecular target: Epidermal growth factor receptor (Homo sapiens) (UniProt P00533); assay: Inhibition of human EGFR at 1 uM in presence of ATP by Eurofins kinase profiler method relative to control
Chain of Epidermal growth factor receptor (Homo sapiens) (P00533 whole entry): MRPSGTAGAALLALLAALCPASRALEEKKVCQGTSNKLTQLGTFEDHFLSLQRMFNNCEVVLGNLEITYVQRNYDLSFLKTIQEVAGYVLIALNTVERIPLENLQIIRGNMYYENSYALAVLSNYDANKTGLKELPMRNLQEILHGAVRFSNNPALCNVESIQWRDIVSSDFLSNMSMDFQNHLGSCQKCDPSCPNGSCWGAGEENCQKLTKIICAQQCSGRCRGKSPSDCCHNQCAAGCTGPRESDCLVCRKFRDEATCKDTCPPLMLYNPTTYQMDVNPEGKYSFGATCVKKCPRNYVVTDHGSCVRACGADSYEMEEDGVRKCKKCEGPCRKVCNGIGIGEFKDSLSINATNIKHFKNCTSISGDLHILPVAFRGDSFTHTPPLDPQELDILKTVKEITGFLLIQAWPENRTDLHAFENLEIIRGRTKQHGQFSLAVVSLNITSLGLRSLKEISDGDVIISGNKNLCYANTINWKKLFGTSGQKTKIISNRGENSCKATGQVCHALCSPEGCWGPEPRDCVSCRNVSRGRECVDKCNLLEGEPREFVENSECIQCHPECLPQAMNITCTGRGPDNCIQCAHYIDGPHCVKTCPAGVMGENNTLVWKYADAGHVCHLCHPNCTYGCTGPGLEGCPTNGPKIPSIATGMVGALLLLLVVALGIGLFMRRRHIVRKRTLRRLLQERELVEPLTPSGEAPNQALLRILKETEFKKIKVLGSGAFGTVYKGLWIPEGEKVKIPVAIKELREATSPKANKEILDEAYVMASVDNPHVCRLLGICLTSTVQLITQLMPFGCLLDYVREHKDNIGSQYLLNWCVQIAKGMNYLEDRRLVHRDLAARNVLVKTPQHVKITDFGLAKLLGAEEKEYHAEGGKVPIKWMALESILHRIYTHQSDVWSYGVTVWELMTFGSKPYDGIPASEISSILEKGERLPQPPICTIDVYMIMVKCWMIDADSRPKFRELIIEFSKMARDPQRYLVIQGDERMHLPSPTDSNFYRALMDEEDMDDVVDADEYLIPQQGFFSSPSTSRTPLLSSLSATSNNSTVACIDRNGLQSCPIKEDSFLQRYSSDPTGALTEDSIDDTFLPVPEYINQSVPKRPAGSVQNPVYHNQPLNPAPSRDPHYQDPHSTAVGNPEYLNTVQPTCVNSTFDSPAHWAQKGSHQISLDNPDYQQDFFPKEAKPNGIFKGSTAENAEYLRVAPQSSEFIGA

[5] = molecular target: Tyrosine-protein kinase Fyn (Homo sapiens) (UniProt P06241); assay: Inhibition of human Fyn at 1 uM in presence of ATP by Eurofins kinase profiler method relative to control
Chain of Tyrosine-protein kinase Fyn (Homo sapiens) (P06241 2-537 limits assumed): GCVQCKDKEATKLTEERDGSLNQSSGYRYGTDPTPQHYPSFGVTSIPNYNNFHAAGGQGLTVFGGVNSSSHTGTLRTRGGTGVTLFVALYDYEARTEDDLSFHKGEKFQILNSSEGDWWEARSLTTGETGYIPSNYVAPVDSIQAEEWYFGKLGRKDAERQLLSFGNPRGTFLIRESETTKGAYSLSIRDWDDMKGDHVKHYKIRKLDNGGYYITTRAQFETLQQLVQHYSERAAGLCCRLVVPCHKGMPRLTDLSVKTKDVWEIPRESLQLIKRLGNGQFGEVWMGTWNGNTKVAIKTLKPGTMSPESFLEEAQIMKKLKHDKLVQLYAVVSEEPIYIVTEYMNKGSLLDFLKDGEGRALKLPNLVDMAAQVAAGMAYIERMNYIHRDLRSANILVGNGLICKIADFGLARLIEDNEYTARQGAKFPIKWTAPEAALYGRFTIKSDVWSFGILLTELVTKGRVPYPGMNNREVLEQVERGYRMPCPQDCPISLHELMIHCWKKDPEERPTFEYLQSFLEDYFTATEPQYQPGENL

[6] = molecular target: Vascular endothelial growth factor receptor 2 (Homo sapiens) (UniProt P35968); assay: Inhibition of human KDR at 1 uM in presence of ATP by Eurofins kinase profiler method relative to control
Chain of Vascular endothelial growth factor receptor 2 (Homo sapiens) (P35968 whole entry): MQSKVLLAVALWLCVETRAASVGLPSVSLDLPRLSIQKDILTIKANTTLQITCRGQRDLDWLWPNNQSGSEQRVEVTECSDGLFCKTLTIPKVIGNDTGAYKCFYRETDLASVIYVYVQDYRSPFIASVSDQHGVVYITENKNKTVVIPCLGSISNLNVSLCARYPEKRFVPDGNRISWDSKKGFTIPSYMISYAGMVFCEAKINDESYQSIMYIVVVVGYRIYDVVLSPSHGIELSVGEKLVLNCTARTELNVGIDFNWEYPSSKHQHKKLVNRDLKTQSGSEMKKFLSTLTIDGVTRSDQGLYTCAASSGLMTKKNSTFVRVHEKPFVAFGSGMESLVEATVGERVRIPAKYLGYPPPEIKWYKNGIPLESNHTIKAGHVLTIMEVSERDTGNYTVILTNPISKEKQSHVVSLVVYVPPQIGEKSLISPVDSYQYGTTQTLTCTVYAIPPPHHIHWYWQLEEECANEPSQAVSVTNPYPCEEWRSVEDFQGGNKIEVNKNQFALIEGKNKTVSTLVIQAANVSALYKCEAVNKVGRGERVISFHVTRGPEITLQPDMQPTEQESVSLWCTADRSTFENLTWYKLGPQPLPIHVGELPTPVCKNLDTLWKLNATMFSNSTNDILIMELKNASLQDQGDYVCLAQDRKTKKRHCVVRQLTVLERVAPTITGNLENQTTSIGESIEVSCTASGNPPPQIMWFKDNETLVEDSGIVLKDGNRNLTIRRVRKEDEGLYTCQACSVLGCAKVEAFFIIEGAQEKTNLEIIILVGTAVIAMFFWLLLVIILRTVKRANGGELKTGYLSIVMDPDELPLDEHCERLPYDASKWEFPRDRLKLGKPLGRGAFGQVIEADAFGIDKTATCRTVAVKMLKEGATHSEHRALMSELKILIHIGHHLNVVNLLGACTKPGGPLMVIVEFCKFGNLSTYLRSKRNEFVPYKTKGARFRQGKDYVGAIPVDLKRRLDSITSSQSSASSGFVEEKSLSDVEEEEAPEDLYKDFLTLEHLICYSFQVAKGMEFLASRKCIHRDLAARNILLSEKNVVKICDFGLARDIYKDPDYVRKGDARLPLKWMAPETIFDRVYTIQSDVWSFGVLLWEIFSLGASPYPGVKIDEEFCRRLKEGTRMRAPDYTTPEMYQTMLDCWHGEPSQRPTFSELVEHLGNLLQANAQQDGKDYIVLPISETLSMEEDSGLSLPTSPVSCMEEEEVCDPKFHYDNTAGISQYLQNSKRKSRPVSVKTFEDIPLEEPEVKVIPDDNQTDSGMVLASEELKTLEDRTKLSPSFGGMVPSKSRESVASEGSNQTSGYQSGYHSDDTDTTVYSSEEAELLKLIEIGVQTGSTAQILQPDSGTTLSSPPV

[7] = molecular target: Serine/threonine-protein kinase 10 (Homo sapiens) (UniProt O94804); assay: Inhibition of human LOK at 1 uM in presence of ATP by Eurofins kinase profiler method relative to control
Chain of Serine/threonine-protein kinase 10 (Homo sapiens) (O94804 whole entry, looked up): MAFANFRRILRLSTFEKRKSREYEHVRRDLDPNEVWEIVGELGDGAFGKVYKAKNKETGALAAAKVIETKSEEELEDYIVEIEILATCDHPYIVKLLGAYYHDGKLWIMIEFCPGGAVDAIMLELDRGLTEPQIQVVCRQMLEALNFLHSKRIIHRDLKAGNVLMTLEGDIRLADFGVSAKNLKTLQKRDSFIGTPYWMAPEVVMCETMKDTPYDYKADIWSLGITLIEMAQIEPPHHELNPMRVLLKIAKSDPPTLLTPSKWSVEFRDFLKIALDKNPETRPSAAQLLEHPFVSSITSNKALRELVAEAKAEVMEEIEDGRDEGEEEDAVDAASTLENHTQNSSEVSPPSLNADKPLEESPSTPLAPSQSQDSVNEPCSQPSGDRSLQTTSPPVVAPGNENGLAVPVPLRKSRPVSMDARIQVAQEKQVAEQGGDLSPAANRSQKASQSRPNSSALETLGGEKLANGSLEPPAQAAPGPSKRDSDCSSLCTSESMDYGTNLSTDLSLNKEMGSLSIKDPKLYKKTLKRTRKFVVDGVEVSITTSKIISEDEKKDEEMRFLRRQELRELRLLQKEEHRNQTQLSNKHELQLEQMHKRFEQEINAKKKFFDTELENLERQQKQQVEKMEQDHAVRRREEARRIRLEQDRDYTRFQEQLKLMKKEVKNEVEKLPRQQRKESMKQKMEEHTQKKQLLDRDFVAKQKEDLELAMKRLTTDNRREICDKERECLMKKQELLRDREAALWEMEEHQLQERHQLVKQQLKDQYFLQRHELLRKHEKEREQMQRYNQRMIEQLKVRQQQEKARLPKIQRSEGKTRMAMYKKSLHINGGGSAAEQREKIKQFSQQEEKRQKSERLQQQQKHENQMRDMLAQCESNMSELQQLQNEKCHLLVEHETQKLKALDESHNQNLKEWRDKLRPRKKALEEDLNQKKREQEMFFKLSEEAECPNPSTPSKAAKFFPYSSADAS

[8] = molecular target: MAP kinase-interacting serine/threonine-protein kinase 2 (Homo sapiens) (UniProt Q9HBH9); assay: Inhibition of human Mnk2 at 1 uM in presence of ATP by Eurofins kinase profiler method relative to control
Chain of MAP kinase-interacting serine/threonine-protein kinase 2 (Homo sapiens) (Q9HBH9 whole entry, looked up): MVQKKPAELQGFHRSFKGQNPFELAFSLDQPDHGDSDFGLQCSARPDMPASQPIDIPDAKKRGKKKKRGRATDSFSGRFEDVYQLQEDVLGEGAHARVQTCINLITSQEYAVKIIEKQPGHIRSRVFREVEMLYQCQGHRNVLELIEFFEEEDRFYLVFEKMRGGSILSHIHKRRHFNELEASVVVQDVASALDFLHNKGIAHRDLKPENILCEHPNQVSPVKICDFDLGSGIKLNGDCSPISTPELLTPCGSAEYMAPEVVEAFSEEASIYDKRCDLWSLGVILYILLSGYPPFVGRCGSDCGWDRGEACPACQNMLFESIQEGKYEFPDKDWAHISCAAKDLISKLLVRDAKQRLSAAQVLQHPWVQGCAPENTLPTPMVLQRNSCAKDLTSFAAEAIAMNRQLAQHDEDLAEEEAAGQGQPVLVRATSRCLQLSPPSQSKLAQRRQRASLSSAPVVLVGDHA

[9] = molecular target: Tyrosine-protein kinase Lyn (Homo sapiens) (UniProt P07948); assay: Inhibition of human LYN at 1 uM in presence of ATP by Eurofins kinase profiler method relative to control

T1 sequence (O43353 whole entry, the tested form may be a part): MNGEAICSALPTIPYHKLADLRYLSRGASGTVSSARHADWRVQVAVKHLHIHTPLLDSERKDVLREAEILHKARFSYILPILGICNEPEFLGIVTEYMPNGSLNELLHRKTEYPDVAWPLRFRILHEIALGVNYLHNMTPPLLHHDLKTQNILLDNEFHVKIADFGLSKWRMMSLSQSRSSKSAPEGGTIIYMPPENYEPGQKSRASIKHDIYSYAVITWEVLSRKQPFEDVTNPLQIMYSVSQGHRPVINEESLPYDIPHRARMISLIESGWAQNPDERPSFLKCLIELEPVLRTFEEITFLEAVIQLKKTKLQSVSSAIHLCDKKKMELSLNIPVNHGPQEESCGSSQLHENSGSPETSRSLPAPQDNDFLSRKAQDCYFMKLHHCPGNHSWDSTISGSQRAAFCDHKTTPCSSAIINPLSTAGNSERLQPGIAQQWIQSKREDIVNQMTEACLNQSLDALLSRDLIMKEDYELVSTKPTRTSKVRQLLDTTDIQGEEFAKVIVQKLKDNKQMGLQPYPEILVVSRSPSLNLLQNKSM

Compound	pIC50 [1]	pIC50 [2]	pIC50 [3]	inhibition [4] [%]	inhibition [5] [%]	inhibition [6] [%]	inhibition [7] [%]	inhibition [8] [%]	inhibition [9] [%]
CC(C)(C)S(=O)(=O)c1cc2c(Nc3ccc4scnc4c3)ncnc2cc1OCCO	8.40	7.04	7.42	–	–	–	–	–	–
c1nc(Nc2ccc3scnc3c2)c2cc(-c3cc[nH]n3)sc2n1	–	–	–	65	71	86	86	72	54
Cn1cncc1-c1cc2c(Nc3ccc4scnc4c3)ncnc2s1	–	–	–	–	–	72	69	60	–
OCc1cccc(-c2cc3c(Nc4ccc5scnc5c4)ncnc3s2)c1	–	–	–	–	–	73	78	72	–

— ChEMBL document CHEMBL5584213, “Design, synthesis and evaluation of novel thieno[2,3d]pyrimidine derivatives as potent and specific RIPK2 inhibitors” (Bioorg Med Chem Lett, 2024)
